The experiment has as its system SRD1 transcript. Description: Transcriptional regulation of SRD1 in response to exogenous IAA in fibrous roots of single-leaf plantlets (real-time RT-PCR). In kind it is in vivo, sweetpotato. Conditions: for transcript level of SRD1: fibrous roots, 25° C. in the dark, FIG. 7A; for transcript level of SRD1 (time course): FIG. 7B. Here is the method: To determine the transcriptional regulation of SRD1, SRD1-specific primers [5′-[…]-3′(SEQ ID NO.: 10) and 5′-GTGCACGAAACTCCCCTT-3′(SEQ ID NO.: 11)] were designed to contain nucleotide 180 (the nucleotide showing an SNP between SRD1 and IbMADS1) and the 3 bp deletion region in SRD1 at the 3′ end of the forward primer and at the 3′ end of the reverse primer, respectively (FIG. 1).
The roots of sweetpotato were treated with IAA according to the following method. Sweetpotato plantlets bearing a single leaf and petiole (single-leaf plantlets) were collected from sweetpotato plants and incubated in flasks containing distilled water for 3 weeks. After fibrous roots had developed from the distal end of the petiole, the single-leaf plantlets were incubated in various concentrations of IAA (0, 50, 500, 1000, 2000 μM) at 25° C. in the dark for various time periods (0-24 h). After the hormone treatment, total RNA was extracted from the fibrous roots using the RNeasy Plant Mini Kit™ (Qiagen) and used for real-time and semi-quantitative reverse transcription-PCR (RT-PCR).
Total RNA (5 μg) was used for first-strand cDNA synthesis using the SuperScript III first-strand cDNA synthesis kit (Invitrogen). The resulting cDNA solution was then diluted with 30 μl of TE (10 mM TRIS-HCl, pH 8.0, 1 mM EDTA). The primers for real-time RT-PCR were as follows: SRD1 (5′-[…]-3′; SEQ ID NO.: 10), 5′-GTGCACGAAACTCCCCTT-3′; SEQ ID NO. 11). Real-time PCR analysis was performed using the LightCycler 480 quantification system (Roche Diagnostics) according to the manufacturer's instructions. Expression levels were normalized with β-tubulin expression amplified with 5′-[…]-3′ (SEQ ID NO.: 12) and 5′-[…]-3′ (SEQ ID NO.: 13) primers. PCR were performed starting with pre-denaturation at 95° C. for 10 min before 45 cycles of denaturation at 95° C. for 10 sec, annealing at 58° C. for 10 sec and extension at 72° C. for 20 sec. Following the amplification phase, a melting curve analysis was conducted from 65° C. to 97° C. The second derivative maximum method in the LightCycler 480 quantification software (Roche Diagnostics) was used to evaluate the data.
A general note: Real-time PCR tracks product formation cycle by cycle.

As for `O=C(O)Cc1c[nH]c2ccccc12` [IAA, Indole-3-acetic acid], the “transcript level of SRD1” value is reported as “decreased” (50 μM IAA), “decreased” (500 μM IAA), “increased sharply” (1000 μM IAA) and “decreased to almost the same level as that observed at 0 μM IAA” (2000 μM IAA). Also, the “transcript level of SRD1 (time course)” value (500 μM IAA, 0.5 h after treatment) is given as “decreased compared with the control”; the “transcript level of SRD1 (time course)” value (500 μM IAA, 1 h after treatment) was “decreased compared with the control”; the “transcript level of SRD1 (time course)” value (500 μM IAA, 3 h after treatment) is recorded as “decreased compared with the control”; the “transcript level of SRD1 (time course)” value (500 μM IAA, 6 h after treatment) is listed as “increased sharply”; the “transcript level of SRD1 (time course)” value (500 μM IAA, 12 h after treatment) is given as “decreased compared with the control”; the “transcript level of SRD1 (time course)” value (500 μM IAA, 24 h after treatment) was “decreased compared with the control”.
